Data from US20050113427A1, “Use of peroxynirite scavengers or peroxynitrite formation inhibitors that do not diminish nitric oxide synthesis or activity to reverse or prevent premature vascular senescence” (ArgiNOx, Inc., priority 2001, published 2005).

Columns and labels:
[1] = system: Human umbilical vein endothelial cells (HUVEC); assay: SA β-galactosidase staining of HUVEC grown on glycated collagen (premature senescence); type: cell-based; conditions: for reversal of premature senescence in HUVECs on GC (SA β-galactosidase staining, FIG. 1): HUVECs on GC 3 days, then compound every 12 hours until staining on day 5, GC dilutions 1:3, 1:6, 1:10 in native collagen; for development of premature senescence (SA β-galactosidase staining) in HUVECs grown on GC: ebselen 1 μmol/L, NOHA 0.1 mmol/L, MnTBAP 2.5 μmol/L, applied day 1, 2 hours after plating, added daily, studied day 3
Description: Detection of SA-β-galactosidase was carried out utilizing the histochemical staining method of Dimitri et al, Proc. Natl. Acad. Sci. USA 92, 9363-9367 as modified by Van der Loo, B., et al, Exp. Cell Res. 241, 309-315 (1998). SA β-galactosidase is a known senescence marker. […] This phenomenon occurred in 12 week and 21 week-old diabetic rats, but was undetectable in age-matched Zucker lean rats (0/24 branches examined).
Human umbilical vein endothelial cells (HUVEC) after four passages were plated on glycated collagen with or without the addition of 0.1 mM ebselen. Application was made on day 1, 2 hours after plating. The extent of SA β-galactosidase staining was evaluated on days 3 and 5 of culture on a glycated or native collagen matrix. In addition, to study the reversibility process, HUVEC were plated on glycated collagen for three days (time sufficient to induce premature senescence), and ebselen was added every 12 hours, starting on day 3, and the cells were examined on day 5.
These concentrations of compounds were chosen based on preliminary experiments testing effects of a range of concentrations for each compound and selecting the lowest one which was efficient but non-cytotoxic. Ebselen, NOHA, and MnTBAP were each applied on day 1, 2 hours after HUVEC plating, added daily, and cells were studied on day 3. HUVECs grown on both glycated and native matrix were examined for the extent of SA β-galactosidase staining. […] In addition, to test for reversibility of senescence by ebselen, NOHA, or MnTBAP, HUVECs were plated on GC for 3 days (time sufficient to induce premature senescence) and thereafter ebselen (ebs), NOHA, or MnTBAP were added every 12 hours, until SA β-galactosidase staining on day 5. […] Dashed lines show the data obtained in HUVECs cultured on native collagen (NC).

end stage renal disease = assay: Patient with end stage renal disease on chronic hemodialysis treated with ebselen (Example I); type: in vivo, human; conditions: ebselen 1-20 mg/kg thrice/day, 6 months later
Excerpt: (In some cases, renal biopsy will be performed, which will directly disclose the deposition of AGE in the renal parenchyma and increased proportion of SA-beta-galactosidase-stained endothelial cells). […] In addition, the patient has their arteriovenous fistula revised 3 times due to clotting and stenosis. The patient is also complaining of a non-healing foot ulcer and intermittent claudication, both signs of peripheral vascular disease. […] Similar results are obtained in similar patients who are administered other ebselen-class compounds.

diabetes mellitus = assay: Patient with poorly controlled diabetes mellitus treated with ebselen (Example II); type: in vivo, human; conditions: ebselen 1-20 mg/kg thrice/day, 6 months later
Description: A patient with type I (alternatively, a patient with type 2) diabetes mellitus, past medical history of myocardial infarction, peripheral vascular disease, hypertension, proteinuria and non-healing foot ulcer, is receiving insulin, but experiences poor therapeutic response. Patient's fasting blood glucose level is 200 mg/dl. Additional laboratory findings include elevated Hgb Alc level (8.5%) as well as one of the following signs of AGE accumulation: elevated level of pentosidine (2.3 pmol/mg) or elevated level of Amadori serum albumin (41 U/ml). (In some cases, renal biopsy will be performed, which will directly disclose the deposition of AGE in the renal parenchyma and increased proportion of SA-beta-galactosidase-stained endothelial cells). […] Similar results are obtained in similar patients who are administered other ebselen-class compounds.

Alzheimer's disease = assay: Patient with Alzheimer's disease treated with ebselen or ebselen-class compounds (Example III); type: in vivo, human; conditions: 1-20 mg/kg thrice/day alone or with antioxidant agents and vitamins; two years later
Description: A person with no known medical conditions has been experiencing a sustained loss of short-term memory for the past three years. Their CBC, electrolytes and other plasma metabolites are within normal range. There is no vitamin deficiency, no abnormalities in liver function tests, and no previous history of cerebro-vascular accidents. […] Based on these findings the patient is diagnosed with Alzheimer's disease. Therapy with ebselen or other ebselen-class compounds is initiated at doses of 1-20 mg/kg thrice/day alone or in combination with antioxidant agents and vitamins (e.g., ascorbate, alpha-tocopherol, vitamin B6, vitamin B12, folate (folic acid), carotenoids, coenzyme Q10, phytoestrogens (including isoflavonoids), butylated hydroxytoluene (BHT), butylated hydroxyanisole (BHA) and n-3 polyunsaturated fatty acids (PUFA)).

[2] = system: endothelial cells from saphenous vein; assay: Artificial heart valve seeded with endothelial cells cultured with ebselen, implanted in patient (Example V); type: in vivo, human; conditions: cells cultured with 10-100 μg/ml at 35° C. for 2-3 weeks; versus patients not receiving ebselen
Description: A person with a defective heart valve is being prepared for a surgical replacement of the valve with a prosthetic device. A saphenous vein is obtained to harvest endothelial cells for expansion and seeding onto the surface of a artificial valve. Endothelial cells are isolated from the graft and cultured in a medium containing ebselen or ebselen-class compound at a concentration of 10-100 μg/ml at 35° C. for 2-3 weeks and cells are seeded onto the valve in the continuous presence of the same concentration of ebselen or ebselen-class compound. Thus prepared, the artificial valve is implanted.

[3] = system: endothelial cells from saphenous vein; assay: Artificial vascular graft seeded with endothelial cells cultured with ebselen, implanted in patient (Example VI); type: in vivo, human; conditions: cells cultured with 10-100 μg/ml at 35° C. for 2-3 weeks; versus patients not receiving ebselen
Description: A person with peripheral vascular disease is undergoing an elective femoral-to-popliteal bypass surgery utilizing an artificial vascular graft. A saphenous vein is obtained to harvest endothelial cells for expansion and seed onto the surface of a graft. Endothelial cells are isolated from the graft and cultured in a medium containing ebselen or ebselen-class compound at a concentration of 10-100 μg/ml at 35° C. for 2-3 weeks, and cells are seeded onto the graft in the continuous presence of the same concentration of ebselen or ebselen-class compound. Thus prepared, the vascular graft is implanted.

N=C(N)NCCC[C@H](N)C(=O)O [L-arginine]
reversal of premature senescence in HUVECs on GC (SA β-galactosidase staining, FIG. 1) [1]: reversed senescence at low but not high concentrations of GC

O=C(O)c1ccc(/C2=C3\C=CC(=N3)/C(c3ccc(C(=O)O)cc3)=c3/cc/c4[n]3[Mn]([Cl])[n]3c2ccc3/C(c2ccc(C(=O)O)cc2)=C2/C=CC(=N2)\C=4c2ccc(C(=O)O)cc2)cc1 [MnTBAP, [5,10,15,20-tetrakis(4-carboxyphenyl)-porphyrinato]manganese (III) chloride]
reversal of premature senescence in HUVECs on GC (SA β-galactosidase staining, FIG. 1) [1]: able to reverse premature senescence at all dilutions of GC
development of premature senescence (SA β-galactosidase staining) in HUVECs grown on GC [1]: completely abolished the development of premature senescence

N=C(NO)NCCC[C@H](N)C(=O)O [NOHA, N^ω-hydroxyl-L-arginine]
reversal of premature senescence in HUVECs on GC (SA β-galactosidase staining, FIG. 1) [1]: able to reverse premature senescence at all dilutions of GC
development of premature senescence (SA β-galactosidase staining) in HUVECs grown on GC [1]: completely abolished the development of premature senescence

O=c1c2ccccc2[se]n1-c1ccccc1 [ebselen, 2-phenyl-1,2-benzisoselenazol-3(2H)-one]
development of premature senescence (SA β-galactosidase staining) in HUVEC grown on glycated collagen ([1]; 0.1 mM ebselen applied day 1, 2 hours after plating, evaluated on days 3 and 5): completely abolished the development of premature senescence
reversal of premature senescence in HUVEC on glycated collagen ([1]; HUVEC on glycated collagen 3 days, ebselen added every 12 hours from day 3, examined day 5): able to reverse premature senescence at all dilutions of glycated collagen
reversal of premature senescence in HUVECs on GC (SA β-galactosidase staining, FIG. 1) [1]: able to reverse premature senescence at all dilutions of GC
development of premature senescence (SA β-galactosidase staining) in HUVECs grown on GC [1]: completely abolished the development of premature senescence
clinical outcome (end stage renal disease): significant subjective improvement of coronary symptoms, renal disease, healing of foot ulcer, normalization of blood pressure
pentosidine after treatment (end stage renal disease): 1.7 pmol/mg
Amodori serum albumin after treatment (end stage renal disease; before 40 U/ml): 30 U/ml
clinical outcome (diabetes mellitus): significant subjective improvement of coronary symptoms
pentosidine after treatment (diabetes mellitus; before 2.3 pmol/mg): ≤ 1.7 pmol/mg
Amadori serum albumin after treatment (diabetes mellitus; before 41 U/ml): ≤ 30 U/ml
symptoms related to the memory loss (Alzheimer's disease): no deterioration and a partial improvement of symptoms related to the memory loss
thrombotic and atheroembolic complications after artificial valve implantation [2]: less thrombotic and atheroembolic complications
thrombotic and atheroembolic complications after vascular graft implantation [3]: less thrombotic and atheroembolic complications
